Results as given in ChEMBL document CHEMBL1201862, “PubChem BioAssay data set” (2004).
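Results reflect a 48-hour exposure of cells in 96-well plates to compound at five concentrations. Here, GI50 denotes the concentration required for 50% inhibition of growth.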 Active and inactive are the calls of the source. No stated cut-off is given here; in the data, active = GI50 up to about 1.1 µM and inactive = higher.

How the values were obtained:
Assay in all cases: DTP human tumour cell line panel, 48 h
IGROV-1 = test system: IGROV-1
HCT-116 = test system: HCT-116
OVCAR-4 = test system: OVCAR-4
SR = test system: SR
DU-145 = test system: DU-145
OVCAR-8 = test system: OVCAR-8
OVCAR-3 = test system: OVCAR-3
SNB-19 = test system: SNB-19
SK-OV-3 = test system: SK-OV-3
A498 = test system: A498
HL-60 = test system: HL-60
M14 = test system: M14
HT-29 = test system: HT-29
SK-MEL-2 = test system: SK-MEL-2
NCI/ADR-RES = test system: NCI/ADR-RES
OVCAR-5 = test system: OVCAR-5
A549 = test system: A549
NCI-H460 = test system: NCI-H460
KM12 = test system: KM12
PC-3 = test system: PC-3

| Structure (SMILES) | GI50 (IGROV-1) | GI50 (HCT-116) | GI50 (OVCAR-4) | GI50 (SR) | GI50 (DU-145) | GI50 (OVCAR-8) | GI50 (OVCAR-3) | GI50 (SNB-19) | GI50 (SK-OV-3) | GI50 (A498) | GI50 (HL-60) | GI50 (M14) | GI50 (HT-29) | GI50 (SK-MEL-2) | GI50 (NCI/ADR-RES) | GI50 (OVCAR-5) | GI50 (A549) | GI50 (NCI-H460) | GI50 (KM12) | GI50 (PC-3) |
| --- | --- | --- | --- | --- | --- | --- | --- | --- | --- | --- | --- | --- | --- | --- | --- | --- | --- | --- | --- | --- |
| O=C(/C=C/C=C/c1ccccc1)c1ccccc1 | 16.9 µM (inactive) | 17.6 µM (inactive) | 17.7 µM (inactive) | 11.2 µM (inactive) | 17.3 µM (inactive) | 13.4 µM (inactive) | 19.2 µM (inactive) | 17.9 µM (inactive) | 22.2 µM (inactive) | 15.1 µM (inactive) | 3.6 µM (inactive) | 18 µM (inactive) | 16.2 µM (inactive) | 20.8 µM (inactive) | 13.8 µM (inactive) | 14.7 µM (inactive) | 18.1 µM (inactive) | 21.3 µM (inactive) | 14.3 µM (inactive) | 19.1 µM (inactive) |
| CCOC(=O)C(C#N)C1=CC(=O)C(=O)c2ccc(OC)cc21 (stereo not given) | 19.9 µM (inactive) | 20.7 µM (inactive) | 19 µM (inactive) | 57.1 µM (inactive) | 19.5 µM (inactive) | 20 µM (inactive) | 17.9 µM (inactive) | 22.1 µM (inactive) | 18.4 µM (inactive) | 21.8 µM (inactive) | 38.3 µM (inactive) | 15.6 µM (inactive) | 31.6 µM (inactive) | 12.8 µM (inactive) | 20.1 µM (inactive) | 20.1 µM (inactive) | 19.7 µM (inactive) | 24.2 µM (inactive) | 20 µM (inactive) | 28.5 µM (inactive) |
| NC(=O)c1nnc2ccc(F)cc2c1N | > 100 µM (inactive) | > 100 µM (inactive) | > 100 µM (inactive) | > 100 µM (inactive) | > 100 µM (inactive) | > 100 µM (inactive) | > 100 µM (inactive) | > 100 µM (inactive) | 87.5 µM (inactive) | > 100 µM (inactive) | > 100 µM (inactive) | > 100 µM (inactive) | > 100 µM (inactive) | > 100 µM (inactive) | > 100 µM (inactive) | 70 µM (inactive) | > 100 µM (inactive) | > 100 µM (inactive) | > 100 µM (inactive) | > 100 µM (inactive) |
| O=S1(=O)CCN(Cc2ccccc2)/C1=N\S(=O)(=O)c1ccc(Cl)cc1 | 17.8 µM (inactive) | 18.5 µM (inactive) | 18.8 µM (inactive) | 24.2 µM (inactive) | 20.5 µM (inactive) | 17 µM (inactive) | 19.4 µM (inactive) | 57 µM (inactive) | 47.4 µM (inactive) | 28.5 µM (inactive) | 22.8 µM (inactive) | 17.3 µM (inactive) | 17.9 µM (inactive) | 23.4 µM (inactive) | 16.6 µM (inactive) | 18.1 µM (inactive) | 65.3 µM (inactive) | 22.3 µM (inactive) | 27.4 µM (inactive) | 18 µM (inactive) |
| COC(=O)c1oc([N+](=O)[O-])c(Cl)c1Cl | 7.67 µM (inactive) | 6.24 µM (inactive) | 9.31 µM (inactive) | 2.08 µM (inactive) | 17.6 µM (inactive) | 10.6 µM (inactive) | 6.1 µM (inactive) | 18.7 µM (inactive) | 19 µM (inactive) | 15.1 µM (inactive) | 1.34 µM (inactive) | 7.28 µM (inactive) | 16.5 µM (inactive) | 12.2 µM (inactive) | 13.4 µM (inactive) | 8.13 µM (inactive) | 8.51 µM (inactive) | 17.2 µM (inactive) | 5.83 µM (inactive) | 8.34 µM (inactive) |
| COc1cccc2c1OC1(C=C2)Oc2ccccc2C(=O)N1C (stereo not given) | 27.7 µM (inactive) | 37.6 µM (inactive) | 45.3 µM (inactive) | 3.55 µM (inactive) | 34 µM (inactive) | 4.68 µM (inactive) | 37.8 µM (inactive) | 56.2 µM (inactive) | 25.9 µM (inactive) | 19.6 µM (inactive) | 19.3 µM (inactive) | 40.8 µM (inactive) | 28.5 µM (inactive) | 54.5 µM (inactive) | 3.91 µM (inactive) | 78.3 µM (inactive) | 41.6 µM (inactive) | 32.4 µM (inactive) | 19.1 µM (inactive) | 27.2 µM (inactive) |
| Nn1c(-c2ccccc2)n[nH]c1=O | > 100 µM (inactive) | > 100 µM (inactive) | > 100 µM (inactive) | > 100 µM (inactive) | > 100 µM (inactive) | > 100 µM (inactive) | > 100 µM (inactive) | > 100 µM (inactive) | > 100 µM (inactive) | > 100 µM (inactive) | > 100 µM (inactive) | > 100 µM (inactive) | > 100 µM (inactive) | > 100 µM (inactive) | > 100 µM (inactive) | > 100 µM (inactive) | > 100 µM (inactive) | > 100 µM (inactive) | > 100 µM (inactive) | > 100 µM (inactive) |
| C(/c1ccco1)=c1/nc(-c2ccccc2)n2c1nc1ccccc12 | 11.3 µM (inactive) | 15.5 µM (inactive) | 20.5 µM (inactive) | 11.4 µM (inactive) | > 100 µM (inactive) | 45.1 µM (inactive) | 9.06 µM (inactive) | > 100 µM (inactive) | 22.4 µM (inactive) | > 100 µM (inactive) | > 100 µM (inactive) | 22.6 µM (inactive) | 26.6 µM (inactive) | 28.2 µM (inactive) | 23.4 µM (inactive) | 69.8 µM (inactive) | 50 µM (inactive) | 39.2 µM (inactive) | 11.2 µM (inactive) | 1.04 µM (active) |
| N=C(N)NS(=O)(=O)c1ccc(NC(=O)c2cccc3c(NNc4ccc(C(=O)O)cc4)c4ccccc4nc23)cc1 | > 100 µM (inactive) | 59 µM (inactive) | > 100 µM (inactive) | 33.5 µM (inactive) | 48.5 µM (inactive) | > 100 µM (inactive) | 46.7 µM (inactive) | 57.8 µM (inactive) | 47.2 µM (inactive) | 24.4 µM (inactive) | 32.6 µM (inactive) | > 100 µM (inactive) | 41.4 µM (inactive) | 22.9 µM (inactive) | > 100 µM (inactive) | > 100 µM (inactive) | > 100 µM (inactive) | 67.3 µM (inactive) | 45.2 µM (inactive) | 46.3 µM (inactive) |
| COc1ccc(/C=C/C(=O)/C=C/c2ccc(OC)cc2)cc1 | 45.6 µM (inactive) | 11.2 µM (inactive) | 43.5 µM (inactive) | 22.5 µM (inactive) | > 100 µM (inactive) | 17.6 µM (inactive) | 32.1 µM (inactive) | > 100 µM (inactive) | > 100 µM (inactive) | > 100 µM (inactive) | 20 µM (inactive) | 21.1 µM (inactive) | 29.3 µM (inactive) | 33.3 µM (inactive) | 97.1 µM (inactive) | > 100 µM (inactive) | 46 µM (inactive) | > 100 µM (inactive) | 24 µM (inactive) | 69.3 µM (inactive) |
